Data taken from patent publication US20140329854A1, “NOVEL HETEROCYCLIC COMPOUNDS USEFUL IN SIRTUIN BINDING AND MODULATION” (SMB Innovation, priority 2011, published 2014).
Like-named read-outs stand apart in the source and are kept apart here. One block for each molecule: values may come before it.

Experiments:
[1] = molecular target: T1, SIRT1 (Homo sapiens, UniProt Q96EB6); assay: CISBIO HTRF SIRT1 assay of SIRT1 peptide deacetylation, modified by excluding NAD+; type: biochemical; conditions: for Modulation of SIRT1 deacetylating activity (in words): dose response, FIGS. 1-5
T1 construct: purchased Cisbio Bioassays
T1 sequence (Q96EB6 1-747): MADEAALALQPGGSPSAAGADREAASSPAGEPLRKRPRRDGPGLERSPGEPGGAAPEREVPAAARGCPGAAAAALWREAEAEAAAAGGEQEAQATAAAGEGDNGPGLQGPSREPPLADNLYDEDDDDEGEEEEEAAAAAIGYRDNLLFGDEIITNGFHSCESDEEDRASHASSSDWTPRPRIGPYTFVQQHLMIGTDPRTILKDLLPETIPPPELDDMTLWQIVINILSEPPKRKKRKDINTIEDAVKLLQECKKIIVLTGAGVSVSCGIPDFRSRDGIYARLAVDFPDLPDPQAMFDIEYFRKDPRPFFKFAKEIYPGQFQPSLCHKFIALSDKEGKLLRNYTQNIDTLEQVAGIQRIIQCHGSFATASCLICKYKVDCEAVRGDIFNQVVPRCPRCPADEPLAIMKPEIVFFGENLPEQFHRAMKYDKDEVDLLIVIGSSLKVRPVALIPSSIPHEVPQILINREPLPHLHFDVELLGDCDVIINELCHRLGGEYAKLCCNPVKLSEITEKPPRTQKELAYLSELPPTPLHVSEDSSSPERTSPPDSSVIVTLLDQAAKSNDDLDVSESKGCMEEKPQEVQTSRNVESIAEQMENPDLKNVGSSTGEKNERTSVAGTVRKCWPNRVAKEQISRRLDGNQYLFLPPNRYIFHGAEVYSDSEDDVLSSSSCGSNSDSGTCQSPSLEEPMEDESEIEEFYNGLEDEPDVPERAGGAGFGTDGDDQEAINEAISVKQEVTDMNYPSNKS
Experimental: Generally, the CISBIO HTRF® fluorescence enzyme titration assay (Cisbio Bioassays, Cisbio, 135 South Road, Bedford, Mass. 01730, USA) has provided information on inhibition and/or activation of SIRT1 deacetylation of a substrate peptide d2 containing a single acetylated lysine residue and a fluorescence probe/quencher. IC50 and AC50 values have been obtained. The assay was performed in microtiter wells and involved an enzymatic step, wherein 2 μL of the substrate peptide (6 nM) is incubated with 2 μL of SIRT1 enzyme (2.5 ng) and 2 μL of compound solution in DMSO and water. Reaction with anti-acetyl cryptate produces a FRET signal giving maximum signal when no SIRT1 reaction can be detected. The detection step involves quantification of the deacetylation process using an anti-acetyl MAb labeled with Eu^3+ cryptate. The assay was modified by excluding the NAD+ cofactor and using nicotinamide as inhibition control and the compound SRT1720 as activation control. SRT 1720 is described as a SIRT1 activating compound in Pillarisetti, S. (2008).
Protocol for inhibition/activation assay:
After adding all enzymatic step ingredients the mixture is incubated at room temperature at 30 to 60 min. Then the detection reactant is added and incubated at room temperature for 5 hours and on to produce a signal. The fluorescence readout is given as percentage of signal produced with no enzyme reaction.
The cryptate is excited at 337 nm and the fluorescence is measured at 590 nm (cryptate emission wavelength) and 665 nm (d2 emission wavelength). A ratio is calculated (665/590 nm) for each well.
The figures show percentage fluorescence as a function of Log C (log of compound concentration in μM).

[2] = tested on: human and rat hepatocytes; assay: Stability in cryopreserved hepatocytes (FIG. 7), verbal summary; type: in vitro ADME; conditions: 90 minutes
Experimental: (§1) Stability of the six compounds in the presence of a drug metabolizing system such as human and rat hepatocytes was measured. Data were reported from the CRO in the format of hepatic intrinsic clearance (CLint) in mL/min/kg. These CLint data were converted using the well-stirred equation

[3] = tested on: human hepatocytes; assay: Metabolic stability in human hepatocytes; type: in vitro ADME; conditions: for % Qh (human): CLh as % of hepatic blood flow; for % Qh (human) / hu CLh: human Qh = 21 mL/min/kg; for hu CLh: hepatic clearance from CLint by well-stirred equation; for hu CLint: human hepatocytes, hepatic intrinsic clearance
Experimental: as §1
(§2) to a whole body clearance (CLh, hepatic clearance), which is more directly physiologically interpreted (Qh, hepatic blood flow rate, mL/min/kg).

[4] = tested on: CYP1A2, 2C9, 2C19, 2D6, and 3A4; conditions: microsomes
[5] = tested on: rat hepatocytes; assay: Metabolic stability in rat hepatocytes; type: in vitro ADME; conditions: for % Qh (rat): CLh as % of hepatic blood flow; for % Qh (rat) / rat CLh: rat Qh = 55 mL/min/kg; for rat CLh: hepatic clearance from CLint by well-stirred equation; for rat CLint: rat hepatocytes, hepatic intrinsic clearance
Experimental: as §1, §2

[6] = tested on: MDCK-MDR1 cells
Excerpt: MDR1 is the nomenclature for the major efflux transporter P-glycoprotein (P-gp), which is expressed at important anatomical barriers such as blood-brain, small intestine, and tumor cells. The MDCK-MDR model is a polarized cell model over expressing P-gp (i.e. P-gp is expressed on the Apical, or gut lumen, side of the cell) that is capable of actively effluxing small molecule substrates in the B to A direction. […] The compounds were run bidirectionally (Compound added to apical side and flux measured of compound appearing on the basolateral, or blood, side; compound added on basolateral side and flux of compound to apical side measured).

[7] = Measured partition coefficients (MlogD7.4, logP11); type: physicochemical; conditions: measured partition coefficient at pH 7.4
Experimental: Physical properties tPSA and ClogP (calculated lipophilicity octanol/water) were calculated using ChemDraw. Additionally, M log D7.4 (measured partition coefficient at pH 7.4) and log P11 (measured partition coefficient at pH 11) were measured, and all data are shown in Table 7.

[8] = Solubility in DMSO stock solution; conditions: solubility in DMSO before further dilution with water to 1% DMSO
[9] = tested on: CYP1A2, CYP2C9, CYP2C19, CYP2D6, CYP3A4; assay: CYP inhibition in human liver microsomes
[10] = SIRT1 activation, no NAD+ cofactor, average n = 3, read-out: AC50 in μM, average, n = 3
[11] = SIRT1 activation, no NAD+ cofactor, single experiment of FIGS. 1-4, read-out: AC50 in μM, n = 1
[12] = average AC50 values, n = 6, read-out: AC50

Compound: NC(=O)c1ccc(C(=O)Nc2ccc(O)c3ccccc23)cn1 [Compound 11, 5-N(4-hydroxy-1-naphthyl)pyridine-2,5-dicarboxamide]
AC50 [1, 10]: 114 µM
AC50 [1, 11]: 3.3 µM
Modulation of SIRT1 deacetylating activity (in words) [1]: clear activation
Clearance in hepatocytes (in words) [2]: relatively low clearance
Stability in hepatocytes (in words) [2]: good stability
% Qh (human) [3]: 60.4%
hu CLh [3]: 12.7 mL/min/kg
hu CLint [3]: 32 mL/min/kg
IC50 [4]: > 5 µM
% Qh (rat) [5]: 70.7%
rat CLh [5]: 38.9 mL/min/kg
rat CLint [5]: 133 mL/min/kg
Cell permeability (in words) [6]: moderate cell permeability
P-gp mediated efflux (in words) [6]: no P-gp mediated efflux
MlogD7.4 [7]: 1.6
Concentration of compound in DMSO stock solution [8]: 20000 µM

Compound: NC(=O)c1ccc2cc(C(=O)Nc3ccc(O)cc3)ccc2n1 [Compound 14, 6-N(4-hydroxyphenyl)quinolin-2,6-dicarboxamide]
Concentration of compound in DMSO stock solution [8]: 200000 µM

Compound: COc1cc2ccccc2c(NC(=O)c2ccc(C(N)=O)cn2)c1O [Compound 28, 2-N(2-hydroxy-3-methoxy-1-naphthyl)pyridine-2,5-dicarboxamide]
AC50 [1, 12]: 175 µM

Compound: NC(=O)c1ccc2cc(C(=O)Nc3ccccc3O)ccc2n1 [Compound 15, 6-N(2-hydroxyphenyl)quinolin-2,6-dicarboxamide]
Concentration of compound in DMSO stock solution [8]: 10000 µM

Compound: NC(=O)c1cc(C(=O)Nc2ccccc2O)c[nH]1 [Compound 17, 4-N(2-hydroxyphenyl)pyrrol-2,4-dicarboxamide]
IC50 ([1]; SIRT1 inhibition, no NAD+ cofactor, n = 1, FIG. 5): 0.5 µM
Modulation of SIRT1 deacetylating activity (in words) [1]: clear inhibition
Concentration of compound in DMSO stock solution [8]: 200000 µM

Compound: NC(=O)c1cc(C(=O)Nc2ccc(O)cc2)c[nH]1 [Compound 16, 4-N(4-hydroxyphenyl)pyrrol-2,4-dicarboxamide]
Concentration of compound in DMSO stock solution [8]: 200000 µM

Compound: COc1cccc(NC(=O)c2ccc(C(N)=O)cn2)c1O [Compound 24, 2-N(2-hydroxy-3-methoxy-phenyl)pyridine-2,5-dicarboxamide]
IC50 [4]: > 5 µM

Compound: NC(=O)c1ccc(C(=O)Nc2cccc3c(O)cccc23)cn1 [Compound 10, 5-N(5-hydroxy-1-naphthyl)pyridine-2,5-dicarboxamide]
Concentration of compound in DMSO stock solution [8]: 20000 µM

Compound: NC(=O)c1ccc(C(=O)Nc2ccccc2O)nc1 [Compound 2, 2-N(2-hydroxyphenyl)pyridine-2,5-dicarboxamide]
AC50 [1, 10]: 348 µM
AC50 [1, 11]: 316 µM
Modulation of SIRT1 deacetylating activity (in words) [1]: clear activation
Concentration of compound in DMSO stock solution [8]: 200000 µM

Compound: NC(=O)c1ccc(C(=O)Nc2cc(Cl)ccc2O)nc1 [Compound 23, 2-N(2-hydroxy-5-chloro-phenyl)pyridine-2,5-dicarboxamide]
AC50 [1, 12]: > 200 µM

Compound: CCOc1ccc2ccc(=O)oc2c1 [Compound 7EC, reference compound]
% Qh (human) [3]: 82.5%
hu CLh [3]: 17.3 mL/min/kg
hu CLint [3]: 99 mL/min/kg
% Qh (rat) [5]: 66.0%
rat CLh [5]: 36.3 mL/min/kg
rat CLint [5]: 107 mL/min/kg

Compound: NC(=O)c1cccc(C(=O)Nc2ccc(O)cc2O)n1 [Compound 13, 2-N(2,4-dihydroxyphenyl)pyridine-2,6-dicarboxamide]
AC50 [1, 10]: 647 µM
AC50 [1, 11]: 105 µM
Modulation of SIRT1 deacetylating activity (in words) [1]: clear activation
Concentration of compound in DMSO stock solution [8]: 20000 µM

Compound: NC(=O)c1ccc(C(=O)Nc2ccc(O)cc2O)cn1 [Compound 9, 5-N(2,4-dihydroxyphenyl)pyridine-2,5-dicarboxamide]
AC50 [1, 11]: 112 µM
Modulation of SIRT1 deacetylating activity (in words) [1]: clear activation
Clearance in hepatocytes (in words) [2]: relatively low clearance
Stability in hepatocytes (in words) [2]: good stability
% Qh (human) [3]: 36.4%
hu CLh [3]: 7.6 mL/min/kg
hu CLint [3]: 12 mL/min/kg
IC50 [4]: > 5 µM
% Qh (rat) [5]: 21.4%
rat CLh [5]: 11.8 mL/min/kg
rat CLint [5]: 15 mL/min/kg
Cell permeability (in words) [6]: moderate cell permeability
P-gp mediated efflux (in words) [6]: no P-gp mediated efflux
MlogD7.4 [7]: 0.3
Concentration of compound in DMSO stock solution [8]: 200000 µM

Further lines, results first:

Concentration of compound in DMSO stock solution [8]: 100000 µM
Compound: NC(=O)c1ccc(C(=O)Nc2cccc3cc(O)ccc23)nc1 [Compound 6, 2-N(6-hydroxy-1-naphthyl)pyridine-2,5-dicarboxamide]

Concentration of compound in DMSO stock solution [8]: 20000 µM
Compound: NC(=O)c1ccc(C(=O)Nc2cccc3c(O)cccc23)nc1 [Compound 5, 2-N(5-hydroxy-1-naphthyl)pyridine-2,5-dicarboxamide]

AC50 [1, 12]: 116 µM
Compound: NC(=O)c1ccc(C(=O)Nc2cc3ccccc3cc2O)nc1 [Compound 18, 2-N(3-hydroxy-2-naphthyl)pyridine-2,5-dicarboxamide]

AC50 [1, 12]: 31.6 µM
IC50 [9]: > 5 µM
Compound: NC(=O)c1ccc(C(=O)Nc2ccc3ccccc3c2O)nc1 [Compound 19, 2-N(1-hydroxy-2-naphthyl)pyridine-2,5-dicarboxamide]

AC50 [1, 12]: 113 µM
IC50 [9]: > 5 µM
Compound: NC(=O)c1ccc(C(=O)Nc2c(O)ccc3cc(Cl)ccc23)nc1 [Compound 29, 2-N(2-hydroxy-6-chloro-1-naphthyl)pyridine-2,5-dicarboxamide]

Concentration of compound in DMSO stock solution [8]: 20000 µM
Compound: NC(=O)c1ccc(C(=O)Nc2cccc3cc(O)ccc23)cn1 [Compound 12, 5-N(6-hydroxy-1-naphthyl)pyridine-2,5-dicarboxamide]

Concentration of compound in DMSO stock solution [8]: 20000 µM
Compound: NC(=O)c1ccc(C(=O)Nc2ccc(O)c3ccccc23)nc1 [Compound 4, 2-N(4-hydroxy-1-naphthyl)pyridine-2,5-dicarboxamide]
